A short description of the series: Cytotoxicity assay (AlamarBlue) in mock infected MT-2 cells. The class given is cell-based. As to conditions: human. The procedure, abridged:
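MT-2 cells at 2×10^4 cells/well, mock-infected, treated with 3-fold serial compound dilutions for 96 h at 37 °C. AlamarBlue added for 3 h, fluorescence read at 545/590 nm; % inhibition versus solvent control fitted to a 4-parameter logistic to give CC50.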
A general note: Resazurin is reduced to fluorescent resorufin, in cell work by metabolically active cells.

The mark [1] stands for this setting: mock infected MT-2 cells, 96 hours, AlamarBlue, read-out: CC50.

Read-outs that look alike come from different tables or passages of the source.

33 molecules from patent US9518022B2, “Anti-HIV compounds” (priority 2014, dated 2016) can be followed below.

As to `COc1ccc(/C=C/C2NCCc3cc(OCc4ccccc4)c(OC)cc32)cc1Cn1ccnc1C` (stereo not drawn) [EN, 6-(benzyloxy)-7-methoxy-1-[(E)-2-{4-methoxy-3-[(2-methyl-1H-imidazol-1-yl)methyl]phenyl}ethenyl]-1,2,3,4-tetrahydroisoquinoline], it took 4.03 µM to reach half-maximal cytotoxicity (CC50 at 96 h).

For `COc1ccc(/C=C/C2NCCc3cc(OCc4ccccc4)c(OC)cc32)cc1COCC(F)(F)F` (stereo not drawn) [EO, 6-(benzyloxy)-7-methoxy-1-[(E)-2-{4-methoxy-3-[(2,2,2-trifluoroethoxy)methyl]phenyl}ethenyl]-1,2,3,4-tetrahydroisoquinoline], half-maximal cytotoxicity (CC50 at 96 h) was put at 1.94 µM.

Consider `COc1cc2c(cc1OCc1ccccc1)CCNC2/C=C/c1ccc(C(=O)O)cc1` (stereo not drawn) [EQ, 4-[(E)-2-[6-(benzyloxy)-7-methoxy-1,2,3,4-tetrahydroisoquinolin-1-yl]ethenyl]benzoic acid], for which the CC50 – broadly, the concentration that lowers cell viability or growth by half – at 96 h was 10 µM.

Regarding `COc1cc2c(cc1OCc1ccccc1)CCNC2/C=C/c1cccc(C(=O)O)c1` (stereo not drawn) [ER, 3-[(E)-2-[6-(benzyloxy)-7-methoxy-1,2,3,4-tetrahydroisoquinolin-1-yl]ethenyl]benzoic acid], the CC50 at 96 h was found to be 10 µM.

`COc1cc2c(cc1OCc1ccccc1)CCNC2/C=C/c1ccccc1C(=O)O` (stereo not drawn) [ES, 2-[(E)-2-[6-(benzyloxy)-7-methoxy-1,2,3,4-tetrahydroisoquinolin-1-yl]ethenyl]benzoic acid] yielded a CC50 at 96 h of 10 µM.

The molecule `CCOC(=O)c1ccccc1/C=C/C1NCCc2cc(OCc3ccccc3)c(OC)cc21` (stereo not drawn) [ET, ethyl 2-[(E)-2-[6-(benzyloxy)-7-methoxy-1,2,3,4-tetrahydroisoquinolin-1-yl]ethenyl]benzoate] had a CC50 at 96 h of 9.9 µM.

Consider `COc1ccc(CCC2NCCc3cc(OC)c(OC)cc32)cc1OC` (stereo not drawn) [Example A, 1-[2-(3,4-Dimethoxyphenyl)ethyl]-6,7-dimethoxy-1,2,3,4-tetrahydroisoquinoline], for which the CC50 at 96 h was over 10 µM.

`CCc1cc(OC)c(OCc2ccccc2)cc1/C=C/C1NCCc2cc(OCc3ccccc3)c(OC)cc21` (stereo not drawn) [Example AA, 6-benzyloxy-1-[(E)-2-(5-benzyloxy-2-ethyl-4-methoxy-phenyl)vinyl]-7-methoxy-1,2,3,4-tetrahydroisoquinoline] registered a CC50 at 96 h of 3.89 µM.

For the molecule `COc1ccc(/C=C/C2NCCc3cc(OCc4ccccc4)c(OC)cc32)cc1OCc1ccccc1` (stereo not drawn) [Example AB, 6-benzyloxy-1-[(E)-2-(3-benzyloxy-4-methoxy-phenyl)vinyl]-7-methoxy-1,2,3,4-tetrahydroisoquinoline], under setting [1], the CC50 at 96 h turned out to be 3.96 µM.

Turning to `COc1cc(Cl)c(/C=C/C2NCCc3cc(OCc4ccccc4)c(OC)cc32)cc1OCc1ccccc1` (stereo not drawn) [Example AC, 6-benzyloxy-1-[(E)-2-(5-benzyloxy-2-chloro-4-methoxy-phenyl)vinyl]-7-methoxy-1,2,3,4-tetrahydroisoquinoline], the CC50 at 96 h was 1.9 µM.

The molecule `COc1cc2c(cc1OCc1ccccc1)CCNC2/C=C/c1cc(OCc2ccccc2)ccc1C` (stereo not drawn) [Example AD, 6-benzyloxy-1-[(E)-2-(5-benzyloxy-2-methyl-phenyl)vinyl]-7-methoxy-1,2,3,4-tetrahydroisoquinoline] displayed a CC50 at 96 h of 3.22 µM.

Molecule `COc1cc(C)c(/C=C/C2=NCCc3cc(OCc4ccccc4)c(OC)cc32)cc1OCc1ccccc1` [Example AE, 6-benzyloxy-1-[(E)-2-(5-benzyloxy-4-methoxy-2-methyl-phenyl)vinyl]-7-methoxy-3,4-dihydroisoquinoline] registered a CC50 at 96 h of 33.5 µM.

Consider `COc1ccc(/C=C/C2NCCc3cc(OCc4ccccc4)c(OC)cc32)c(C)c1` (stereo not drawn) [Example AG, 6-benzyloxy-7-methoxy-1-[(E)-2-(4-methoxy-2-methyl-phenyl)vinyl]-1,2,3,4-tetrahydroisoquinoline], for which the CC50 at 96 h worked out at 9.83 µM.

The molecule `COc1cc(C)c(/C=C/C2NCCc3cc(OCc4ccccc4)c(OC)cc32)cc1OC` (stereo not drawn) [Example AH, 6-benzyloxy-1-[(E)-2-(4,5-dimethoxy-2-methyl-phenyl)vinyl]-7-methoxy-1,2,3,4-tetrahydroisoquinoline] showed a CC50 at 96 h of 2.4 µM.

`COCCCCOc1cc(OC)ccc1/C=C/C1NCCc2cc(OCc3ccccc3)c(OC)cc21` (stereo not drawn) [Example AI, (E)-6-(benzyloxy)-7-methoxy-1-(4-methoxy-2-(4-methoxybutoxy)styryl)-1,2,3,4-tetrahydroisoquinoline]: the CC50 at 96 h was found to be 5.6 µM.

`COc1cc2c(cc1OCc1ccccc1)CCNC2/C=C/c1ccc(OC(F)(F)F)cc1C` (stereo not drawn) [Example AJ, (E)-6-(benzyloxy)-7-methoxy-1-(2-methyl-4-(trifluoromethoxy)styryl)-1,2,3,4-tetrahydroisoquinoline] registered a CC50 at 96 h of 5 µM.

Regarding `COc1cc2c(cc1OCc1ccccc1)CCNC2/C=C/c1ccnn1C` (stereo not drawn) [Example AK, 6-benzyloxy-7-methoxy-1-[(E)-2-(2-methylpyrazol-3-yl)vinyl]-1,2,3,4-tetrahydroisoquinoline], the CC50 at 96 h turned out to be 10 µM.

Take `CCn1cc(/C=C/C2NCCc3cc(OCc4ccccc4)c(OC)cc32)cn1` (stereo not drawn) [Example AL, 6-Benzyloxy-1-[(E)-2-(1-ethylpyrazol-4-yl)vinyl]-7-methoxy-1,2,3,4-tetrahydroisoquinoline]: the CC50 at 96 h came out at 24.2 µM.

The molecule `COc1cc2c(cc1OCc1ccccc1)CCNC2/C=C/c1cc(OC)c(OC)c(OC)c1` (stereo not drawn) [Example AM, 6-Benzyloxy-7-methoxy-1-[(E)-2-(3,4,5-trimethoxyphenyl)vinyl]-1,2,3,4-tetrahydroisoquinoline] registered a CC50 at 96 h of 6 µM.

With `COc1cc2c(cc1OCc1ccccc1)CCNC2/C=C/c1ccc(OC)c2occc12` (stereo not drawn) [Example AN, 6-Benzyloxy-7-methoxy-1-[(E)-2-(7-methoxybenzofuran-4-yl)vinyl]-1,2,3,4-tetrahydroisoquinoline], the CC50 at 96 h turned out to be 3.7 µM.

As for `COc1cc2c(cc1OCc1ccccc1)CCNC2/C=C/c1ccc(OC)c2ccoc12` (stereo not drawn) [Example AO, 6-Benzyloxy-7-methoxy-1-[(E)-2-(4-methoxybenzofuran-7-yl)vinyl]-1,2,3,4-tetrahydroisoquinoline], half-maximal cytotoxicity (CC50 at 96 h) was put at 9.94 µM.

In the case of `COc1ccc(/C=C/C2c3cc(OC)c(OCc4ccccc4)cc3CCN2C(=O)c2cnccn2)cc1OCc1ccccc1` (stereo not drawn) [Example B, [6-Benzyloxy-1-[(E)-2-(3-benzyloxy-4-methoxy-phenyl)vinyl]-7-methoxy-3,4-dihydro-1H-isoquinolin-2-yl]-pyrazin-2-yl-methanone], the CC50 at 96 h stood at 5 µM.

Molecule `COc1cc2c(cc1OC)C(/C=C/c1cc(OCc3ccccc3)c(OC)cc1C)NCC2` (stereo not drawn) [Example C, 1-[(E)-2-(5-Benzyloxy-4-methoxy-2-methyl-phenyl)vinyl]-6,7-dimethoxy-1,2,3,4-tetrahydroisoquinoline] gave a CC50 at 96 h of 11 µM.

In turn, `CCCCN1CCc2cc(OC)c(OCc3ccccc3)cc2C1/C=C/c1ccc(OCc2ccccc2)c(OC)c1` (stereo not drawn) [Example D, 7-Benzyloxy-1-[(E)-2-(4-benzyloxy-3-methoxy-phenyl)vinyl]-2-butyl-6-methoxy-3,4-dihydro-1H-isoquinoline] came in with a half-maximal cytotoxic concentration (CC50) at 96 h of over 10 µM.

The molecule `COc1cc(C)c(/C=C/C2c3cc(OC)c(OCc4ccccc4)cc3CCN2C)cc1OCc1ccccc1` (stereo not drawn) [Example E, 6-Benzyloxy-1-[(E)-2-(5-benzyloxy-4-methoxy-2-methyl-phenyl)vinyl]-7-methoxy-2-methyl-3,4-dihydro-1H-isoquinoline] had a CC50 at 96 h of 7.17 µM.

For the molecule `CCCCN1CCc2cc(OCc3ccccc3)c(OC)cc2C1/C=C/c1ccc(OC)c(OCc2ccccc2)c1` (stereo not drawn) [Example G, 6-Benzyloxy-1-[(E)-2-(3-benzyloxy-4-methoxy-phenyl)vinyl]-2-butyl-7-methoxy-3,4-dihydro-1H-isoquinoline], the midpoint of cytotoxicity, the CC50 at 96 h, lay at 5 µM.

On to `COc1cc(C(C)(C)C)c(/C=C/C2NCCc3cc(OCc4ccccc4)c(OC)cc32)cc1OCc1ccccc1` (stereo not drawn) [Example J, 6-Benzyloxy-1-[(E)-2-(5-benzyloxy-2-tert-butyl-4-methoxy-phenyl)vinyl]-7-methoxy-1,2,3,4-tetrahydroisoquinoline], for which the CC50 at 96 h was 5.36 µM.

Take `COC(=O)N1CCc2cc(OCc3ccccc3)c(OC)cc2C1/C=C/c1ccc(OC)c(OCc2ccccc2)c1` (stereo not drawn) [Example L, Methyl 6-benzyloxy-1-[(E)-2-(3-benzyloxy-4-methoxy-phenyl)vinyl]-7-methoxy-3,4-dihydro-1H-isoquinoline-2-carboxylate]: the CC50 at 96 h was over 20 µM.

Consider `COc1cc(C)c(/C=C/C2c3cc(OC)c(OCc4ccccc4)cc3CCN2C(=O)NC(C)(C)C)cc1OCc1ccccc1` (stereo not drawn) [Example O, 6-benzyloxy-1-[(E)-2-(5-benzyloxy-4-methoxy-2-methyl-phenyl)vinyl]-N-tert-butyl-7-methoxy-3,4-dihydro-1H-isoquinoline-2-carboxamide], for which the CC50 at 96 h was over 10 µM.

Take `COc1cc(C)c(CCC2NCCc3cc(OCc4ccccc4)c(OC)cc32)cc1OCc1ccccc1` (stereo not drawn) [Example Q, 6-benzyloxy-1-[2-(5-benzyloxy-4-methoxy-2-methyl-phenyl)ethyl]-7-methoxy-1,2,3,4-tetrahydroisoquinoline]: it took 5.15 µM to reach half-maximal cytotoxicity (CC50 at 96 h).

`COc1cc(C)c(/C=C/C2c3cc(OC)c(OCc4ccccc4)cc3CCN2C(N)=O)cc1OCc1ccccc1` (stereo not drawn) [Example R, 6-benzyloxy-1-[(E)-2-(5-benzyloxy-4-methoxy-2-methyl-phenyl)vinyl]-7-methoxy-3,4-dihydro-1H-isoquinoline-2-carboxamide]: the CC50 at 96 h under setting [1] stood at 39.3 µM.

On to `COc1cc(/C=C/C2NCCc3cc(OC)c(OCc4ccccc4)cc32)ccc1OCc1ccccc1` (stereo not drawn) [Example S, 7-benzyloxy-1-[(E)-2-(4-benzyloxy-3-methoxy-phenyl)vinyl]-6-methoxy-1,2,3,4-tetrahydroisoquinoline], for which the CC50 at 96 h was found to be 8.25 µM.

Molecule `COc1cc(C)c(/C=C/C2c3cc(OC)c(OCc4ccccc4)cc3CCN2C(=O)c2ccncc2)cc1OCc1ccccc1` (stereo not drawn) [Example U, [6-benzyloxy-1-[(E)-2-(5-benzyloxy-4-methoxy-2-methyl-phenyl)vinyl]-7-methoxy-3,4-dihydro-1H-isoquinolin-2-yl]-(4-pyridyl)methanone] returned a CC50 at 96 h of over 100 µM.
